Target: T1, human GPR119 (Homo sapiens, UniProt Q8TDV5)
T1 construct: expression vector for human GPR119 cDNA (Acc. No. NP_848566); expressed in transfected cells
T1 sequence (Q8TDV5 1-335): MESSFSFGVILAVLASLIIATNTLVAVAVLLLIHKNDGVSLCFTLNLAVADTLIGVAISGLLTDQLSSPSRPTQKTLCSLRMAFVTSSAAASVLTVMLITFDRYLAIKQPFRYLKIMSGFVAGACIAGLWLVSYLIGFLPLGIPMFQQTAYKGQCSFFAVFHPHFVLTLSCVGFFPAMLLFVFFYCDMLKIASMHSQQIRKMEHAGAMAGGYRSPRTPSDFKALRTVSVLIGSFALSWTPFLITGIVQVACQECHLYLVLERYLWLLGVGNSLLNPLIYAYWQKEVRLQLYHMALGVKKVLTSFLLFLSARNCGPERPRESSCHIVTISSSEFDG
Test: GPR119 activation / intracellular cAMP stimulation, AlphaScreen cAMP Assay in Min-6/hGPR119 cells
Assay type: cell-based
Conditions: MIN6 cells stably transfected with human GPR119, 45 minutes incubation at room temperature
Experimental: The compounds of formula I according to the invention modulate the activity of the G-protein-coupled receptor GPR119. The effect of the compounds on the activation of GPR119 and on the stimulation of intracellular cAMP concentration is determined using the AlphaScreen cAMP Assay Kit (Cat. No. #6760625R) made by PerkinElmer.
MIN6 cells [Miyazaki J et al., Endocrinology. 1990 July; 127(1):126-32] are stably transfected with an expression vector for human GPR119 cDNA (Acc. No. NP_848566). Min-6/hGPR119 cells are cultured in DMEM, 10% FBS, 50 μM β-mercaptoethanol, 0.3 mg/mL Geniticin, 2 mM GlutaMAX at 37° C., 5% CO2. For the assay, the cells are seeded in Optiplates (white, 384-well, 160W-barcoded, TC, sterile with lid, Cat. No. #6007688 (Perkin Elmer); 10000 cells/well; 50 μL). The plates covered with lids are then incubated for 24 hours at 37° C., 5% CO2. After the medium is aspirated from the wells completely, 10 ill of the test compound are added, the compounds are diluted using stimulating buffer (140 mM NaCl, 3.6 mM KCl, 0.5 mM NaH2PO4, 0.5 mM MgSO4, 1.5 mM CaCl2, 10 mM Hepes, 5 mM NaHCO3; pH 7.4. 0.5 mM IBMX and 0.1% BSA, the final DMSO concentration is 1%). After 45 minutes incubation at room temperature (approx. 20° C.), the cAMP concentrations are determined using the AlphaScreen cAMP Assay Kit (Cat. No. #6760625R from PerkinElmer).

Compound	EC50 [µM]
CC(C)(C)OC(=O)N1CCC2(CC1)CC1(Cc3cc(C4CCN(S(C)(=O)=O)CC4)ncc3O1)C2 [Example 19, 5-(1-Methanesulfonyl-piperidin-4-yl)-1″-tert-butoxycarbonyl-dispiro[2,3-dihydrofuro[2,3-c]pyridine-2,1′-cyclobutane-3′,4″-piperidine]]	0.106
CCCc1cnc(N2CCC3(CC2)CC2(Cc4cc(C5=CCN(S(C)(=O)=O)CC5)ncc4O2)C3)nc1 [Example 16, 5-(1-Methanesulfonyl-1,2,3,6-tetrahydro-pyridin-4-yl)-1″-(5-n-propyl-pyrimidin-2-yl)-dispiro[2,3-dihydrofuro[2,3-c]pyridine-2,1′-cyclobutane-3′,4″-piperidine]]	0.004
CS(=O)(=O)N1CC=C(c2cc3c(cn2)OC2(C3)CC3(CCN(c4ccc(C(F)(F)F)cn4)CC3)C2)CC1 [Example 11, 5-(1-Methanesulfonyl-1,2,3,6-tetrahydro-pyridin-4-yl)-1″-(5-trifluoromethyl-pyridin-2-yl)-dispiro[2,3-dihydrofuro[2,3-c]pyridine-2,1′-cyclobutane-3′,4″-piperidine]]	0.013
CCc1cnc(N2CCC3(CC2)CC2(Cc4cc(C5=CCN(S(C)(=O)=O)CC5)ncc4O2)C3)nc1 [Example 28, 1″-(5-Ethyl-pyrimidin-2-yl)-5-(1-methanesulfonyl-1,2,3,6-tetrahydro-pyridin-4-yl)-dispiro[2,3-dihydrofuro[2,3-c]pyridine-2,1′-cyclobutane-3′,4″-piperidine]]	0.011
CSc1ccc(-c2cc3c(cn2)OC2(C3)CC3(CCN(C(=O)OC(C)(C)C)CC3)C2)c(C#N)c1 [Example 30, 5-(2-Cyano-4-methylsulfanyl-phenyl)-1″-tert-butoxycarbonyl-dispiro[2,3-dihydrofuro[2,3-c]pyridine-2,1′-cyclobutane-3′,4″-piperidine]]	0.014
CC(C)(C)OC(=O)N1CCC2(CC1)CC1(Cc3cc(-c4ccc(CS(C)(=O)=O)cc4)ncc3O1)C2 [Example 18, 5-(4-Methylsulfonylmethyl-phenyl)-1″-tert-butoxycarbonyl-dispiro[2,3-dihydrofuro[2,3-c]pyridine-2,1′-cyclobutane-3′,4″-piperidine]]	0.024
CC(C)(C)OC(=O)N1CCC2(CC1)CC1(Cc3cc(-c4ccc(S(C)(=O)=O)nc4)ncc3O1)C2 [Example 13, 5-(6-Methanesulfonyl-pyridin-3-yl)-1″-tert-butoxycarbonyl-dispiro[2,3-dihydrofuro[2,3-c]pyridine-2,1′-cyclobutane-3′,4″-piperidine]]	0.042
C[C@@H](OC(=O)N1CCC2(CC1)CC1(Cc3cc(C4=CCN(S(C)(=O)=O)CC4)ncc3O1)C2)C(F)(F)F [Example 33, 5-(1-Methanesulfonyl-1,2,3,6-tetrahydro-pyridin-4-yl)-1″-[(R)-2,2,2-trifluoro-1-methyl-ethyloxycarbonyl]-dispiro[2,3-dihydrofuro[2,3-c]pyridine-2,1′-cyclobutane-3′,4″-piperidine]]	0.008
CCCc1noc(N2CCC3(CC2)CC2(Cc4cc(C5=CCN(S(C)(=O)=O)CC5)ncc4O2)C3)n1 [Example 24, 5-(1-Methanesulfonyl-1,2,3,6-tetrahydro-pyridin-4-yl)-1″-(3-n-propyl-[1,2,4]oxadiazol-5-yl)-dispiro[2,3-dihydrofuro[2,3-c]pyridine-2,1′-cyclobutane-3′,4″-piperidine]]	0.01
CC(C)c1noc(N2CCC3(CC2)CC2(Cc4cc(C5=CCN(S(C)(=O)=O)CC5)ncc4O2)C3)n1 [Example 23, 1″-(3-Isopropyl-[1,2,4]oxadiazol-5-yl)-5-(1-methanesulfonyl-1,2,3,6-tetrahydro-pyridin-4-yl)-dispiro[2,3-dihydrofuro[2,3-c]pyridine-2,1′-cyclobutane-3′,4″-piperidine]]	0.012
CCNC(=O)c1ccc(-c2cc3c(cn2)OC2(C3)CC3(CCN(C(=O)OC(C)(C)C)CC3)C2)cc1 [Example 22, 5-(4-Ethylaminocarbonyl-phenyl)-1″-tert-butoxycarbonyl-dispiro[2,3-dihydrofuro[2,3-c]pyridine-2,1′-cyclobutane-3′,4″-piperidine]]	0.028
CC1=C(c2cc3c(cn2)OC2(C3)CC3(CCN(C(=O)OC(C)(C)C)CC3)C2)CCN(S(C)(=O)=O)C1 [Example 8, 5-(1-Methanesulfonyl-5-methyl-1,2,3,6-tetrahydro-pyridin-4-yl)-1″-tert-butoxycarbonyl-dispiro[2,3-dihydrofuro[2,3-c]pyridine-2,1′-cyclobutane-3′,4″-piperidine]]	0.019
CC(C)(C)OC(=O)N1CCC2(CC1)CC1(Cc3cc(N4CCN(S(C)(=O)=O)CC4)ncc3O1)C2 [Example 21, 5-(4-Methanesulfonyl-piperazin-1-yl)-1″-tert-butoxycarbonyl-dispiro[2,3-dihydrofuro[2,3-c]pyridine-2,1′-cyclobutane-3′,4″-piperidine]]	0.077
Cc1cnc(N2CCC3(CC2)CC2(Cc4cc(-c5ccc(S(C)(=O)=O)cc5)ncc4O2)C3)nc1 [Example 7, 1″-(5-Methyl-pyrimidin-2-yl)-5-(4-methylsulfonyl-phenyl)-dispiro[2,3-dihydrofuro[2,3-c]pyridine-2,1′-cyclobutane-3′,4″-piperidine]]	0.042
CCCc1nc(N2CCC3(CC2)CC2(Cc4cc(C5=CCN(S(C)(=O)=O)CC5)ncc4O2)C3)no1 [Example 26, 5-(1-Methanesulfonyl-1,2,3,6-tetrahydro-pyridin-4-yl)-1″-(3-n-propyl-[1,2,4]oxadiazol-3-yl)-dispiro[2,3-dihydrofuro[2,3-c]pyridine-2,1′-cyclobutane-3′,4″-piperidine]]	0.008
C[C@H](OC(=O)N1CCC2(CC1)CC1(Cc3cc(C4=CCN(S(C)(=O)=O)CC4)ncc3O1)C2)C(F)(F)F [Example 27, 1″-[(S)-2,2,2-Trifluoro-1-methyl-ethyloxycarbonyl]-5-(1-methanesulfonyl-1,2,3,6-tetrahydro-pyridin-4-yl)-dispiro[2,3-dihydrofuro[2,3-c]pyridine-2,1′-cyclobutane-3′,4″-piperidine]]	0.004
CC(C)(C)OC(=O)N1CCC2(CC1)CC1(Cc3cc(C4=CCN(S(C)(=O)=O)CC4)ncc3O1)C2 [Example 2, 5-(1-Methanesulfonyl-1,2,3,6-tetrahydro-pyridin-4-yl)-1″-tert-butoxycarbonyl-dispiro[2,3-dihydrofuro[2,3-c]pyridine-2,1′-cyclobutane-3′,4″-piperidine]]	0.05
CCc1cnc(N2CCC3(CC2)CC2(Cc4cc(-c5ccc(S(C)(=O)=O)cc5)ncc4O2)C3)nc1 [Example 4, 1″-(5-Ethyl-pyrimidin-2-yl)-5-(4-methylsulfonyl-phenyl)-dispiro[2,3-dihydrofuro[2,3-c]pyridine-2,1′-cyclobutane-3′,4″-piperidine]]	0.018
CC(C)(C)OC(=O)N1CCC2(CC1)CC1(Cc3cc(-c4ccc(S(C)(=O)=O)cc4F)ncc3O1)C2 [Example 3, 5-(2-Fluoro-4-methylsulfonyl-phenyl)-1″-tert-butoxycarbonyl-dispiro[2,3-dihydrofuro[2,3-c]pyridine-2,1′-cyclobutane-3′,4″-piperidine]]	0.015
CC(C)Oc1cnc(N2CCC3(CC2)CC2(Cc4cc(C5=CCN(S(C)(=O)=O)CC5)ncc4O2)C3)nc1 [Example 15, 1″-(5-Isopropoxy-pyrimidin-2-yl)-5-(1-methanesulfonyl-1,2,3,6-tetrahydro-pyridin-4-yl)-dispiro[2,3-dihydrofuro[2,3-c]pyridine-2,1′-cyclobutane-3′,4″-piperidine]]	0.01
CC(C)(C)OC(=O)N1CCC2(CC1)CC1(Cc3cc(-c4ccc(C#N)cc4F)ncc3O1)C2 [Example 14, 5-(4-Cyano-2-fluoro-phenyl)-1″-tert-butoxycarbonyl-dispiro[2,3-dihydrofuro[2,3-c]pyridine-2,1′-cyclobutane-3′,4″-piperidine]]	0.06
CC(C)c1nc(N2CCC3(CC2)CC2(Cc4cc(C5=CCN(S(C)(=O)=O)CC5)ncc4O2)C3)no1 [Example 25, 1″-(5-Isopropyl-[1,2,4]oxadiazol-3-yl)-5-(1-methanesulfonyl-1,2,3,6-tetrahydro-pyridin-4-yl)-dispiro[2,3-dihydrofuro[2,3-c]pyridine-2,1′-cyclobutane-3′,4″-piperidine]]	0.005
CC(C)(C)OC(=O)N1CCC2(CC1)CC1(Cc3cc(-c4ccc(S(C)(=O)=O)cc4C#N)ncc3O1)C2 [Example 31, 5-(2-Cyano-4-methylsulfonyl-phenyl)-1″-tert-butoxycarbonyl-dispiro[2,3-dihydrofuro[2,3-c]pyridine-2,1′-cyclobutane-3′,4″-piperidine]]	0.005
